Laboratory results: US12419869B2, “Methods of treating multiple sclerosis” (Vanda Pharmaceuticals Inc., priority 2021, dated 2025)

Assays:
[1] = system: adult subjects with relapsing MS; parameters: species or system human; conditions: in vivo; for Discontinuation rate because of elevations in hepatic enzymes / Patients with elevations of ALT to 5-fold the ULN or greater / Subjects with ALT increase >3×ULN (label: 3-fold the ULN or greater) / Subjects with ALT increase >8×ULN: human, 2 year
Description: Based on the individual case review, most ALT/AST increases ≥3×ULN occurred as a single transient asymptomatic episode, resolving with continued treatment or after protocol mandated treatment discontinuation. All but one case of bilirubin increase ≥2×ULN occurred in subjects with pre-treatment bilirubin increases. One case of potential Hy's law occurred in a subject with pre-existing transaminase elevation (ALT>5×ULN), and the event fully resolved within 2 weeks after treatment discontinuation.
In Study 1, elevations of ALT to 5-fold the upper limit of normal (ULN) or greater occurred in 4.6% of patients treated with PONVORY compared to 2.5% of patients who received teriflunomide 14 mg. […] The median time to an elevation of 3-fold the ULN was 3 months. The majority (89%) of patients with ALT increases 3-fold or greater the ULN continued treatment with PONVORY with values returning to less than three times the ULN within approximately 2-4 weeks.

male and female rats = experiment: Fertility studies in male and female rats, oral; type: in vivo, rat
Method: Plasma ponesimod exposures (AUC) at the highest dose tested were approximately 10 (males) and 30 (females) times that in humans at the recommended human dose (RHD) of 20 mg/day.

[2] = Oral toxicity studies of 13 to 52 weeks in dogs, coronary arterial lesions; type: in vivo, dog; conditions: dog, in vivo; 13 to 52 weeks oral
Method: (§1) At the NOAEL (2 mg/kg/day) for these findings, plasma exposures (AUC) were approximately 2 times that expected in humans at the RHD.

dogs = experiment: as above; type: in vivo, dog; conditions: dogs
Method: as §1

mammalian cells = experiment: Chromosomal aberration in mammalian cells; type: cell-based; conditions: in vitro
Description: Ponesimod was negative in a battery of in vitro (Ames, chromosomal aberration in mammalian cells) and in vivo (micronucleus in rat) assays.

[3] = system: peripheral lymphocyte count; type: in vivo, human
Description: PONVORY causes a dose-dependent reduction in peripheral lymphocyte count to 30-40% of baseline values because of reversible sequestration of lymphocytes in lymphoid tissues [see Clinical Pharmacology (12.2)]. PONVORY may therefore increase the susceptibility to infections. Life-threatening and rare fatal infections have been reported in association with other sphingosine 1-phosphate (SIP) receptor modulators.
Initiation of treatment with PONVORY should be delayed in patients with active infection until resolution. Lymphocyte counts returned to the normal range in 90% of patients within 1 week of stopping therapy in modeling studies [see Clinical Pharmacology (12.2)]. In Study 1, peripheral lymphocyte counts returned to normal range within 2 weeks after discontinuation of PONVORY, which was the first timepoint evaluated. Because residual pharmacodynamic effects, such as lowering effects on peripheral lymphocyte count, may persist for 1 to 2 weeks after discontinuation of PONVORY, vigilance for infection should be continued for 1 to 2 weeks after PONVORY is discontinued [see Warnings and Precautions (5.12)].
In Study 1, the proportion of patients who experienced lymphocyte counts less than 0.2×10^9/L was 3.2%. Effective diagnostic and therapeutic strategies should be employed in patients with symptoms of infection while on therapy. Consider interruption of treatment with PONVORY if a patient develops a serious infection.

[4] = Pharmacokinetics in renal impairment; type: in vivo, human; conditions: moderate or severe renal impairment
Description: No dose adjustment is necessary in patients with renal impairment. […] The effect of dialysis on the PK of ponesimod has not been studied. Due to the high plasma protein binding (greater than 99%) of ponesimod, dialysis is not expected to alter the total and unbound ponesimod concentration, and no dose adjustments are anticipated based on these considerations.

CYP3A4 and UGT1A1 = experiment: In vitro assessments and limited clinical data, strong CYP3A4 and UGT1A1 inducers; conditions: e.g., rifampin, phenytoin, carbamazepine
Description: It is unclear whether this decrease in ponesimod systemic exposure would be considered of clinical relevance. Coadministration of PONVORY with strong CYP3A4 and UGT1A1 inducers is not recommended.

pregnant rabbits = experiment: Dose-range finding study in pregnant rabbits, oral; type: in vivo, rabbit; conditions: 0, 6, 20, or 60 mg/kg/day; at lowest dose tested
Description: No maternal toxicity was observed.

plasma proteins = experiment: in vitro; type: in vitro ADME
Description: (§2) Ponesimod is highly bound to plasma proteins (>99%) and is mainly (78.5%) distributed in the plasma fraction of whole blood.

in vitro = in vitro ADME; conditions: human, plasma
Description: as §2

[5] = system: peripheral blood lymphocyte count; experiment: Peripheral blood lymphocyte count in healthy volunteers; type: in vivo, human
Method: In healthy volunteers, PONVORY induces a dose-dependent reduction of the peripheral blood lymphocyte count from a single dose of 5 mg onwards, with the greatest reduction observed 6 hours post-dose, caused by reversible sequestration of lymphocytes in lymphoid tissues. After 7 daily doses of 20 mg, the greatest decrease in absolute mean lymphocyte count was to 26% of baseline (650 cells/μL), observed 6 hours after administration. Peripheral blood B cells [CD19+] and T cells [CD3+], T-helper [CD3+CD4+], and T-cytotoxic [CD3+CD8+] cell subsets are all affected, while NK cells are not. T-helper cells were more sensitive to the effects of ponesimod than T-cytotoxic cells.

[6] = system: CYP450, UGT and non-CYP450 oxidative enzymes; experiment: In vitro studies with human liver preparations (metabolism); type: in vitro ADME
Description: Experiments with human liver preparations indicate that metabolism of ponesimod to M13 occurs primarily through a combination of non-Cytochrome P450 (CYP450) enzymatic activities. Multiple CYP450 (CYP2J2, CYP3A4, CYP3A5, CYP4F3A, and CYP4F12) and non-CYP450 enzymes catalyze the oxidation of ponesimod to M12. Ponesimod also undergoes direct glucuronidation (mainly UGT1A1 and UGT2B7).

[7] = Coadministration with oral hormonal contraceptive; type: in vivo, human; conditions: 1 mg norethisterone/norethindrone and 35 μg ethinyl estradiol
Description: Therefore, concomitant use of ponesimod is not expected to decrease the efficacy of hormonal contraceptives. No interaction studies have been performed with oral contraceptives containing other progestogens: however, an effect of ponesimod on their exposure is not expected.

In the case of `C/C(O)=C(\C#N)C(=O)Nc1ccc(C(F)(F)F)cc1` [Teriflunomide, reference compound], the “Discontinuation rate because of elevations in hepatic enzymes” value [1] is reported as 1.9%, the “Patients with elevations of ALT to 5-fold the ULN or greater” value [1] is reported as 2.5% and the “Subjects with ALT increase >3×ULN (label: 3-fold the ULN or greater)” value [1] is reported as 8.3%. The “Subjects with ALT increase >8×ULN” value [1] was 2.1%.

For `CCC/N=C1\S/C(=C\c2ccc(OC[C@H](O)CO)c(Cl)c2)C(=O)N1c1ccccc1C` [Ponesimod, (R)-5-[3-chloro-4-(2,3-dihydroxy-propoxy)-benz[Z]ylidene]-2-([Z]-propylimino)-3-o-tolyl-thiazolidin-4-one], the “Effects on fertility in rats” value (male and female rats; 0, 10, 30, or 100 mg/kg/day oral) was “no effects on fertility”, the “Plasma exposure (AUC) at highest dose relative to humans at RHD, females” value (male and female rats; 100 mg/kg/day) was ~30 times and the “Plasma exposure (AUC) at highest dose relative to humans at RHD, males” value (male and female rats; 100 mg/kg/day) was “approximately 10 times”. For the same compound, the NOAEL [2] was 2 mg/kg/day, the “Plasma exposures (AUC) at NOAEL relative to humans at RHD” value (dogs) was “approximately 2 times” and the “Chromosomal aberration in mammalian cells result” value (mammalian cells) was “negative”. For the same compound, the “Time for peripheral lymphocyte counts to return to normal range after discontinuation” value ([3]; Study 1, first timepoint evaluated) was ≤ 2 weeks, the “Peripheral lymphocyte count reduced to % of baseline values” ([3]; dose-dependent) was 30-40 % of baseline and the “Proportion of patients with lymphocyte counts less than 0.2×10^9/L” value ([3]; human, in vivo) was 3.2%. For the same compound, the “Discontinuation rate because of elevations in hepatic enzymes” value [1] was 2.3%, the “Patients with elevations of ALT to 5-fold the ULN or greater” value [1] was 4.6% and the “Subjects with ALT increase >3×ULN (label: 3-fold the ULN or greater)” value [1] was 17.3%. The “Subjects with ALT increase >8×ULN” value [1] was 0.7%, the “Median time to an ALT elevation of 3-fold the ULN” value [1] was 3 months and the “Patients with ALT increases 3-fold or greater the ULN who continued treatment” value [1] was 89%. For the same compound, the “Time for ALT values returning to less than three times the ULN on continued treatment” value [1] was 2-4 weeks, the “Change in Cmax and AUC vs normal renal function” value [4] was “no significant changes” and the “Effect of strong CYP3A4 and UGT1A1 inducers on systemic exposure” value (CYP3A4 and UGT1A1) was “may decrease the systemic exposure”. The “Findings in dose-range finding study in pregnant rabbits” value (pregnant rabbits) was “an increase in embryofetal death and fetal limb malformation”, the “Distribution in the plasma fraction of whole blood” value (plasma proteins) was 78.5% and the Plasma protein binding (plasma proteins; human, plasma) was “greater than 99%”. For the same compound, the fraction unbound (in vitro) was < 0.01, the “Absolute mean lymphocyte count at greatest decrease” value ([5]; after 7 daily doses of 20 mg) was 650 cells/μL and the “Greatest decrease in absolute mean lymphocyte count, % of baseline” value ([5]; after 7 daily doses of 20 mg, 6 hours after administration) was 26 % of baseline. The “Time of greatest reduction of peripheral blood lymphocyte count” value ([5]; post-dose, healthy volunteers) was 6 h, the “Contribution of enzymes to metabolism” value [6] was “without major contribution by any single enzyme” and the “Pharmacokinetic interaction with oral hormonal contraceptive” value [7] was “no clinically relevant pharmacokinetic interaction”.
